Source: patent US20260215425A1, “NITRIFICATION INHIBITORS” (The University of Melbourne, priority 2022, published 2026)

System: N. europaea
Experiment: O2 consumption measurements
Type: cell-based
Details: [NH4+] 3 mM, 20° C.
Method: O2 consumption rates of cell suspensions of N. europaea were measured using a Clark-type oxygen electrode (Rank Brothers, Cambridge, UK) mounted in a water-jacketed electrode chamber (3 mL capacity) that was connected to a recirculating cooler (Lauda, Austria). The data were recorded using a Data-trax™ (World Precision Instruments, UK) sensor data collection system. All measurements were taken at 20° C. and 1 mL final reaction solution volume. The polarizing voltage was set to 0.6 V. To calibrate the oxygen signal, an excess (approximately 50 mg) of Na2S2O4 was added to 1 mL of Milli-Q water to chemically remove dissolved O2. […] The voltage at saturated O2 concentration (“100% O2”) was determined by measuring the voltage of the equilibrated aerated reaction system consisting of 1 mL Milli-Q water. Sample measurements were taken as follows: The 1 mL reaction mixture, composed of 980 μL N. europaea cell solution in NaPB (OD600=0.8; corresponding to approximately 468 μg/L protein) was equilibrated for 5 min in the chamber until the voltage reading was stable. […] After 4 min of oxygen consumption (a linear rate coefficient of approximately kobs=k=274.7+20.0 nmol O2 L^−1 s^−1 was determined), 10 μL of the inhibitor stock solution of MPT in DMSO (1.2 mM and 0.6 mM) were added via a 10-μL Eppendorf pipette through a capillary opening, ensuring the emergence of the pipette tip in the solution. […]

C#CCn1cc(C)nn1 [Compound 4-MPT, 4-Methyl-1-(prop-2-yn-1yl)-1H-1,2,3-triazole]
observed rate coefficient kobs for the O2 consumption ([MPT]=0.6 mM): 0.0027 s⁻¹
observed rate coefficient kobs for the O2 consumption ([MPT]=1.2 mM): 0.0045 s⁻¹
